Test system: mRNA expressed from the genes (A) to (D) in rat liver
Experiment: Behavior of genes (mRNA expression level, oligo-DNA microarray) in rat liver after 28-day oral administration
Format: in vivo
Settings: mRNA vs vehicle control group
Protocol: A test solution was prepared by dissolving each of the carcinogens and the non-carcinogens shown in Tables 2 to 6 in the corresponding solvent shown in Tables 2 to 6. Each of the thus prepared test solutions and the solvents used for the preparation was administered by oral gavage to rats in each group. As the rats, male rats (F344 SPF rats) at 5 weeks of age obtained from Charles River Laboratories Japan, Inc. were used. The animals were divided into groups, each containing four individuals. The volume of the solvent administered to the vehicle control group was set to the same volume as that of the test solution administered to the carcinogen administration group or the non-carcinogen administration group. The administration of the test solution or the solvent was performed once daily for 28 days. Apiece was excised from the liver of each of the rats after a lapse of 28 days from the initiation of the administration, and the total RNA was extracted and purified.
The expression level of mRNA was compared between each of the chemical substance administration groups and the corresponding vehicle control group, and genes that satisfy the requirements described in (A) to (D) were selected, respectively.
The case where the expression level of mRNA in the carcinogen administration group or the non-carcinogen administration group is 1.5 times or more or 1/1.5 or less of the expression level of the corresponding mRNA expressed in the control group was determined to be significant. In this connection, the determination as to whether or not the change is significant was performed by taking into consideration the direction of increase or decrease in the expression level. In the case where the direction of increase or decrease is different as compared with the case where another carcinogen was administered, the change was determined to be not significant.

[1] = gene group (A), Unigene No. Rn.167075
[2] = gene group (C), Unigene No. Rn.120914

Structure (SMILES): O=[N+]([O-])c1cc[n+]([O-])c2ccccc12 [TS049, 4-Nitroquinoline-1-oxide]
- Behavior of gene caused by administration of chemical substance, Gene No. 4846 (gene group (A), Unigene No. Rn.144554): −
- Behavior of gene caused by administration of chemical substance, Gene No. 2026 [1]: −
- Behavior of gene caused by administration of chemical substance, Gene No. 4218 [1]: −
- Behavior of gene caused by administration of chemical substance, Gene No. 6182 (gene group (A), Unigene No. Rn.5834): −
- Behavior of gene caused by administration of chemical substance, Gene No. 5600 (gene group (A), Unigene No. Rn.9836): −
- Behavior of gene caused by administration of chemical substance, Gene No. 1494 (gene group (B), Unigene No. Rn.1430): −
- Behavior of gene caused by administration of chemical substance, Gene No. 2045 (gene group (B), Unigene No. Rn.19329): −
- Behavior of gene caused by administration of chemical substance, Gene No. 2203 (gene group (B), Unigene No. Rn.21240): −
- Behavior of gene caused by administration of chemical substance, Gene No. 533 (gene group (C), Unigene No. Rn.106184): −
- Behavior of gene caused by administration of chemical substance, Gene No. 725 (gene group (C), Unigene No. Rn.108075): −
- Behavior of gene caused by administration of chemical substance, Gene No. 1163 (gene group (C), Unigene No. Rn.11766): −
- Behavior of gene caused by administration of chemical substance, Gene No. 4973 (gene group (C), Unigene No. Rn.118529): −
- Behavior of gene caused by administration of chemical substance, Gene No. 4095 (gene group (C), Unigene No. Rn.119024): −
- Behavior of gene caused by administration of chemical substance, Gene No. 1334 [2]: −
- Behavior of gene caused by administration of chemical substance, Gene No. 6620 [2]: −
- Behavior of gene caused by administration of chemical substance, Gene No. 6303 (gene group (C), Unigene No. Rn.123063): −
- Behavior of gene caused by administration of chemical substance, Gene No. 5878 (gene group (C), Unigene No. Rn.143213): −
- Behavior of gene caused by administration of chemical substance, Gene No. 1131 (gene group (C), Unigene No. Rn.144946): −
- Behavior of gene caused by administration of chemical substance, Gene No. 1562 (gene group (C), Unigene No. Rn.14744): −
- Behavior of gene caused by administration of chemical substance, Gene No. 1741 (gene group (C), Unigene No. Rn.1647): −
- Behavior of gene caused by administration of chemical substance, Gene No. 893 (gene group (C), Unigene No. Rn.164817): −
- Behavior of gene caused by administration of chemical substance, Gene No. 6026 (gene group (C), Unigene No. Rn.167685): −
- Behavior of gene caused by administration of chemical substance, Gene No. 154 (gene group (C), Unigene No. Rn.185941): −
- Behavior of gene caused by administration of chemical substance, Gene No. 1993 (gene group (C), Unigene No. Rn.18728): −
- Behavior of gene caused by administration of chemical substance, Gene No. 813 (gene group (C), Unigene No. Rn.201760): −
- Behavior of gene caused by administration of chemical substance, Gene No. 2494 (gene group (C), Unigene No. Rn.23969): −
- Behavior of gene caused by administration of chemical substance, Gene No. 2546 (gene group (C), Unigene No. Rn.24561): −
- Behavior of gene caused by administration of chemical substance, Gene No. 3776 (gene group (C), Unigene No. Rn.43232): −
- Behavior of gene caused by administration of chemical substance, Gene No. 3929 (gene group (C), Unigene No. Rn.4620): −
- Behavior of gene caused by administration of chemical substance, Gene No. 1119 (gene group (C), Unigene No. Rn.9757): −
- Behavior of gene caused by administration of chemical substance, Gene No. 6742 (gene group (C), Unigene No. Rn.9779): −
- Behavior of gene caused by administration of chemical substance, Gene No. 5634 (gene group (C), Unigene No. Rn.9862): −
- Behavior of gene caused by administration of chemical substance, Gene No. 5726 (gene group (D), Unigene No. Rn.9939): +
